Test results reported in ChEMBL document CHEMBL4477221, “Discovery and Structure-Based Optimization of 2-Ureidothiophene-3-carboxylic Acids as Dual Bacterial RNA Polymerase and Viral Reverse Transcriptase Inhibitors” (J Med Chem, 2016).
Values after ≈ are worked out from the molar mass of the structure shown. Active and inactive are the calls of the source. The calls are words filed in the database; no cut-off is given here.

What was measured:
[1] = Cytotoxicity against HEK293 cells; type: cell-based; settings: human, read-out: LD50 (the source's name)
[2] = target: Human immunodeficiency virus type 1 reverse transcriptase (Human immunodeficiency virus 1) (UniProt Q72547); assay: Effect on binding orientation of HIV1 Alexa 488-labeled reverse transcriptase to TAMRA-labeled primer/template duplex by FRET assay
[3] = test system: Human immunodeficiency virus 1; assay: Binding affinity to bodipy-labeled HIV1 reverse transcriptase p66 W24C/K287C double mutant assessed as induction of p66 thumb and finger domain open conformation at 3 uM by fluorescence spectroscopic analysis
[4] = target: Human immunodeficiency virus type 1 reverse transcriptase (Human immunodeficiency virus 1, UniProt Q72547); assay: Inhibition of HIV1 reverse transcriptase using T19-Cy5 labeled 23-mer DNA/T2-TAMRA labeled 63-mer DNA as primer/template assessed as inhibition of dNTP incorporation into primer/template
[5] = target: Human immunodeficiency virus type 1 reverse transcriptase (Human immunodeficiency virus 1) (UniProt Q72547); assay: Inhibition of TAMRA-labeled primer/template duplex binding to HIV1 Alexa 488-labeled reverse transcriptase by FRET assay
[6] = Inhibition of Escherichia coli RNA polymerase
Staphylococcus aureus = assay: Antibacterial activity against Staphylococcus aureus; type: functional
[7] = target: Human immunodeficiency virus type 1 reverse transcriptase (Human immunodeficiency virus 1) (UniProt Q72547); assay: Inhibition of HIV1 reverse transcriptase using T19-Cy5 labeled 23-mer DNA/T2-TAMRA labeled 63-mer DNA as primer/template assessed as inhibition of dNTP incorporation into primer/template at 25 uM relative to control
[8] = test system: Human immunodeficiency virus 1; assay: Antiviral activity against NNRTI resistant HIV1 harboring reverse transcriptase V106I/Y181C/G190A/H221Y mutant assessed as inhibition of viral infection in human TZM-bl cells after 48 hrs by luciferase reporter gene assay; type: functional, organism-based; settings: Human immunodeficiency virus 1, TZM-bl
[9] = test system: Human immunodeficiency virus 1; assay: Binding affinity to bodipy-labeled HIV1 reverse transcriptase p66 W24C/K287C double mutant assessed as induction of p66 thumb and finger domain open conformation by measuring increase in bodipy fluorescence at 10 uM by stopped flow kinetic analysis
[10] = test system: Human immunodeficiency virus 1; assay: Antiviral activity against wild type HIV1 NL4-3; type: functional, organism-based; settings: Human immunodeficiency virus 1, NL4-3
[11] = Ratio of IC50 for NNRTI resistant HIV1 harboring reverse transcriptase K103N/V179F/Y181C mutant infected in human TZM-bl cells to IC50 for wild type HIV1 NL4-3 infected in human TZM-bl cells; type: functional
[12] = Ratio of IC50 for NNRTI resistant HIV1 harboring reverse transcriptase L100I/K103N/H221Y mutant infected in human TZM-bl cells to IC50 for wild type HIV1 NL4-3 infected in human TZM-bl cells; type: functional
[13] = Ratio of IC50 for NNRTI resistant HIV1 harboring reverse transcriptase A98G/K101E/Y181C/G190A mutant infected in human TZM-bl cells to IC50 for wild type HIV1 NL4-3 infected in human TZM-bl cells; type: functional
[14] = target: Human immunodeficiency virus type 1 reverse transcriptase (Human immunodeficiency virus 1) (UniProt Q72547); assay: Inhibition of HIV1 reverse transcriptase using T19-Cy5 labeled 23-mer DNA/T2-TAMRA labeled 63-mer DNA as primer/template assessed as inhibition of dNTP incorporation into primer/template at 10 uM relative to control
[15] = Cytotoxicity against human HeLa cells infected with HIV1 pseudoparticle expressing Gag, Gag-pol, RRE, and vesicular stomatitis virus-G protein assessed as inhibition of cell viability at 25 uM preincubated with cells for 30 mins followed by pseudoparticle addition measured 24 hrs post infection by MTT assay relative to control; type: cell-based; settings: read-out: INH
[16] = test system: Human immunodeficiency virus 1; assay: Antiviral activity against HIV1 pseudoparticle expressing Gag, Gag-pol, RRE, and vesicular stomatitis virus-G protein assessed as inhibition of pseudoparticles entry into human HeLa cells pretreated for 30 mins followed by pseudoparticle addition measured 24 hrs post infection by luciferase reporter gene assay; type: functional, organism-based
[17] = test system: Human immunodeficiency virus 1; assay: Antiviral activity against wild type HIV1 NL4-3 assessed as inhibition of viral infection in human TZM-bl cells after 48 hrs by luciferase reporter gene assay; type: functional, organism-based; settings: Human immunodeficiency virus 1, NL4-3, TZM-bl
[18] = target: Human immunodeficiency virus type 1 reverse transcriptase (Human immunodeficiency virus 1) (UniProt Q72547); assay: Inhibition of HIV1 reverse transcriptase using T19-Cy5 labeled 23-mer DNA/T2-TAMRA labeled 63-mer DNA as primer/template assessed as inhibition of dNTP incorporation into primer/template at 1 uM relative to control
[19] = Human immunodeficiency virus 1, HeLa, read-out: IC50

CN(C)S(=O)(=O)Nc1ccc(NC(=O)Nc2sc(-c3ccc(Cl)c(Cl)c3)cc2C(=O)O)cc1
CC50 [1]: > 100 µM
Activity [2]: inactive
Activity [3]: inactive
IC50 [4]: 600 nM
Activity [5]: inactive
IC50 [6]: 23 µM
MIC (Staphylococcus aureus): 13 µg/mL (≈ 24.6 µM)

Nc1ccc(NC(=O)Nc2sc(-c3ccc(Cl)c(Cl)c3)cc2C(=O)O)cc1
inhibition [7]: 64%
IC50 [6]: 53 µM

O=C(O)c1cc(-c2ccc(Cl)c(Cl)c2)sc1NC(=O)N(Cc1ccccc1)Cc1ccccc1
inhibition [7]: 63%
IC50 [6]: 7 µM

Cc1ccnc2c1NC(=O)c1cccnc1N2C1CC1 [NEVIRAPINE]
IC50 [8]: > 200 µM
Activity [9]: Active
IC50 [6]: > 200 µM
IC50 [10]: 100 nM

Cc1cc(C#N)cc(C)c1Oc1nc(Nc2ccc(C#N)cc2)nc(N)c1Br [ETRAVIRINE]
Ratio IC50 [11]: 8.8
Ratio IC50 [12]: 6.8
IC50 [8]: 6 µM
Ratio IC50 [13]: 15
IC50 [10]: 5 nM

CCN(Cc1ccccc1)C(=O)Nc1cc(-c2ccc(Cl)c(Cl)c2)sc1C(=O)O
inhibition [7]: 24%
IC50 [6]: 22 µM

CCN(Cc1ccccc1)C(=O)Nc1c(-c2ccc(Cl)c(Cl)c2)csc1C(=O)O
inhibition [14]: 4%
IC50 [6]: 100 µM

O=C(NCc1ccccc1)Nc1sc(-c2ccc(Cl)c(Cl)c2)cc1C(=O)O
inhibition [7]: 64%
IC50 [6]: 43 µM

CC(=O)Nc1ccc(NC(=O)Nc2sc(-c3ccc(Cl)c(Cl)c3)cc2C(=O)O)cc1
Activity [2]: inactive
Activity [3]: inactive
IC50 [4]: 600 nM
Activity [5]: inactive
IC50 [6]: 27 µM

CCN(Cc1ccccc1)C(=O)Nc1cc(-c2ccc(Cl)cc2)sc1C(=O)O
inhibition [7]: 12%
IC50 [6]: 75 µM

CS(=O)(=O)Nc1ccc(NC(=O)Nc2sc(-c3ccc(Cl)c(Cl)c3)cc2C(=O)O)cc1
CC50 [1]: > 100 µM
Ratio IC50 [11]: >4
Activity [2]: inactive
cytotoxicity at 24 h, 25 µM [15]: 0%
Activity [3]: inactive
IC50 [16, 19]: 30 µM
Ratio IC50 [12]: >4
IC50 [8]: 1.5 µM
Ratio IC50 [13]: 3.5
IC50 [4]: 100 nM
IC50 [17]: 5 µM
Activity [5]: inactive
IC50 [6]: 26 µM
MIC (Staphylococcus aureus): 39 µg/mL (≈ 77.9 µM)

COc1ccc(NC(=O)Nc2sc(-c3ccc(Cl)c(Cl)c3)cc2C(=O)O)cc1
CC50 [1]: 80 µM
Activity [2]: inactive
cytotoxicity at 24 h, 25 µM [15]: 12%
Activity [3]: inactive
IC50 [16, 19]: 35 µM
IC50 [4]: 800 nM
Activity [5]: inactive
IC50 [6]: 22 µM
MIC (Staphylococcus aureus): 8 µg/mL (≈ 18.3 µM)

CCN(Cc1ccccc1)C(=O)Nc1scc(-c2ccc(Cl)cc2)c1C(=O)O
inhibition [18]: 12%
IC50 [6]: > 100 µM

CCN(Cc1ccccc1)C(=O)Nc1sc(-c2ccc(Cl)c(Cl)c2)cc1C(=O)O
CC50 [1]: 58 µM
Activity [2]: inactive
cytotoxicity at 24 h, 25 µM [15]: 23%
Activity [3]: inactive
IC50 [16, 19]: 27 µM
IC50 [4]: 900 nM
Activity [5]: inactive
IC50 [6]: 21 µM
MIC (Staphylococcus aureus): 10 µg/mL (≈ 22.3 µM)

O=C(Nc1ccccc1)Nc1sc(-c2ccc(Cl)c(Cl)c2)cc1C(=O)O
CC50 [1]: 61 µM
Ratio IC50 [11]: >4
Activity [2]: inactive
cytotoxicity at 24 h, 25 µM [15]: 0%
Activity [3]: inactive
IC50 [16, 19]: 20 µM
Ratio IC50 [12]: >4
IC50 [8]: 1 µM
Ratio IC50 [13]: 3
IC50 [4]: 1200 nM
IC50 [17]: 5 µM
Activity [9]: inactive
Activity [5]: inactive
IC50 [6]: 20 µM
MIC (Staphylococcus aureus): 6 µg/mL (≈ 14.7 µM)

O=C(Cn1cncn1)Nc1ccc(NC(=O)Nc2sc(-c3ccc(Cl)c(Cl)c3)cc2C(=O)O)cc1
Activity [2]: inactive
Activity [3]: inactive
IC50 [4]: 800 nM
Activity [5]: inactive
IC50 [6]: 40 µM

COC(=O)Nc1ccc(NC(=O)Nc2sc(-c3ccc(Cl)c(Cl)c3)cc2C(=O)O)cc1
CC50 [1]: 86 µM
Activity [2]: inactive
cytotoxicity at 24 h, 25 µM [15]: 6%
Activity [3]: inactive
IC50 [16, 19]: 30 µM
IC50 [4]: 300 nM
Activity [5]: inactive
IC50 [6]: 19 µM
MIC (Staphylococcus aureus): 25 µg/mL (≈ 52 µM)

Cc1cn([C@H]2C[C@H](N=[N+]=[N-])[C@@H](CO[P@](=O)(O)O[P@](=O)(O)OP(=O)(O)O)O2)c(=O)[nH]c1=O [ZIDOVUDINE TRIPHOSPHATE]
IC50 [4]: 7000 nM

CCN(Cc1ccccc1)C(=O)Nc1c(-c2ccc(Cl)cc2)csc1C(=O)O
inhibition [14]: 13%
IC50 [6]: > 200 µM

CCN(Cc1ccccc1)C(=O)Nc1scc(-c2ccc(Cl)c(Cl)c2)c1C(=O)O
inhibition [18]: 12%
IC50 [6]: 57 µM

CCN(Cc1ccccc1)C(=O)Nc1sc(-c2ccc(Cl)cc2)cc1C(=O)O
inhibition [18]: 12%
IC50 [6]: 54 µM

Cc1cc(/C=C/C#N)cc(C)c1Nc1ccnc(Nc2ccc(C#N)cc2)n1 [RILPIVIRINE]
Ratio IC50 [11]: 2.3
Ratio IC50 [12]: 6.3
IC50 [8]: 3.5 µM
Ratio IC50 [13]: 22
IC50 [10]: 0.9 nM

O=C(Nc1ccc(NS(=O)(=O)c2ccccc2)cc1)Nc1sc(-c2ccc(Cl)c(Cl)c2)cc1C(=O)O
CC50 [1]: 94 µM
Ratio IC50 [11]: >1.5
Activity [2]: inactive
Activity [3]: inactive
Ratio IC50 [12]: >1.5
IC50 [8]: > 1.5 µM
Ratio IC50 [13]: 1
IC50 [4]: 900 nM
IC50 [17]: 15 µM
Activity [5]: inactive
IC50 [6]: 8 µM
MIC (Staphylococcus aureus): 3 µg/mL (≈ 5.33 µM)

O=C1Nc2ccc(Cl)cc2[C@@](C#CC2CC2)(C(F)(F)F)O1 [EFAVIRENZ]
IC50 [8]: 26 µM

O=C(Nc1ccc(F)cc1)Nc1sc(-c2ccc(Cl)c(Cl)c2)cc1C(=O)O
CC50 [1]: 68 µM
Activity [2]: inactive
cytotoxicity at 24 h, 25 µM [15]: 0%
Activity [3]: inactive
IC50 [16]: Not Active
IC50 [4]: 700 nM
Activity [5]: inactive
IC50 [6]: 14 µM
MIC (Staphylococcus aureus): 4 µg/mL (≈ 9.41 µM)
